Measurements taken from ChEMBL document CHEMBL4011590, “Structure-activity relationship studies on 3,5-dinitrophenyl tetrazoles as antitubercular agents” (Eur J Med Chem, 2017).
In brackets after ≈: the same amount, converted by molar mass.

Experiments:
[1] = tested on: Mycobacterium tuberculosis; assay: Antimycobacterial activity against Mycobacterium tuberculosis H37Rv CNCTC My 331/88 after 14 days by micromethod; format: functional; conditions: H37Rv CNCTC My 331/88, 336 h
[2] = tested on: Mycobacterium tuberculosis; assay: Antimycobacterial activity against Mycobacterium tuberculosis H37Rv CNCTC My 331/88 after 21 days by micromethod; format: functional; conditions: H37Rv CNCTC My 331/88, 504 h
[3] = tested on: Mycobacterium avium; assay: Antimycobacterial activity against Mycobacterium avium CNCTC My 330/80 after 14 days by micromethod; format: functional; conditions: CNCTC My 330/80, 336 h
[4] = tested on: Mycobacterium avium; assay: Antimycobacterial activity against Mycobacterium avium CNCTC My 330/80 after 21 days by micromethod; format: functional; conditions: CNCTC My 330/80, 504 h
[5] = tested on: Mycobacterium kansasii; assay: Antimycobacterial activity against Mycobacterium kansasii CNCTC My 235/80 after 7 days by micromethod; format: functional; conditions: CNCTC My 235/80, 168 h
[6] = tested on: Mycobacterium kansasii; assay: Antimycobacterial activity against Mycobacterium kansasii CNCTC My 235/80 after 14 days by micromethod; format: functional; conditions: CNCTC My 235/80, 336 h
[7] = tested on: Mycobacterium kansasii; assay: Antimycobacterial activity against Mycobacterium kansasii CNCTC My 235/80 after 21 days by micromethod; format: functional; conditions: CNCTC My 235/80, 504 h
[8] = tested on: Mycobacterium kansasii; assay: Antimycobacterial activity against Mycobacterium kansasii isolate 6509/96 after 7 days by micromethod; format: functional; conditions: isolate 6509/96, 168 h
[9] = tested on: Mycobacterium kansasii; assay: Antimycobacterial activity against Mycobacterium kansasii isolate 6509/96 after 14 days by micromethod; format: functional; conditions: isolate 6509/96, 336 h
[10] = tested on: Mycobacterium kansasii; assay: Antimycobacterial activity against Mycobacterium kansasii isolate 6509/96 after 21 days by micromethod; format: functional; conditions: isolate 6509/96, 504 h
[11] = tested on: CHO-K1; assay: Cytotoxicity against CHOK1 cells after 24 hrs by MTT assay; format: cell-based; conditions: Cricetulus griseus, CHO-K1, 24 h
[12] = tested on: Staphylococcus aureus; assay: Antibacterial activity against Staphylococcus aureus ATCC 6538 after 24 hrs by broth microdilution method; format: functional; conditions: ATCC 6538, 24 h
[13] = tested on: Staphylococcus aureus; assay: Antibacterial activity against Staphylococcus aureus ATCC 6538 after 48 hrs by broth microdilution method; format: functional; conditions: ATCC 6538, 48 h
[14] = tested on: Staphylococcus aureus; assay: Antibacterial activity against methicillin-resistant Staphylococcus aureus HK5996/08 after 24 hrs by broth microdilution method; format: functional; conditions: HK5996/08, 24 h
[15] = tested on: Staphylococcus aureus; assay: Antibacterial activity against methicillin-resistant Staphylococcus aureus HK5996/08 after 48 hrs by broth microdilution method; format: functional; conditions: HK5996/08, 48 h
[16] = tested on: Staphylococcus epidermidis; assay: Antibacterial activity against Staphylococcus epidermidis HK6966/08 after 24 hrs by broth microdilution method; format: functional; conditions: HK6966/08, 24 h
[17] = tested on: Staphylococcus epidermidis; assay: Antibacterial activity against Staphylococcus epidermidis HK6966/08 after 48 hrs by broth microdilution method; format: functional; conditions: HK6966/08, 48 h
[18] = tested on: Enterococcus sp.; assay: Antibacterial activity against Enterococcus sp. HK14365/08 after 24 hrs by broth microdilution method; format: functional; conditions: HK14365/08, 24 h
[19] = tested on: Enterococcus sp.; assay: Antibacterial activity against Enterococcus sp. HK14365/08 after 48 hrs by broth microdilution method; format: functional; conditions: HK14365/08, 48 h
[20] = tested on: Escherichia coli; assay: Antibacterial activity against Escherichia coli ATCC 8739 after 24 hrs by broth microdilution method; format: functional; conditions: ATCC 8739, 24 h
[21] = tested on: Escherichia coli; assay: Antibacterial activity against Escherichia coli ATCC 8739 after 48 hrs by broth microdilution method; format: functional; conditions: ATCC 8739, 48 h
[22] = tested on: Klebsiella pneumoniae; assay: Antibacterial activity against Klebsiella pneumoniae HK11750/08 after 24 hrs by broth microdilution method; format: functional; conditions: HK11750/08, 24 h
[23] = tested on: Klebsiella pneumoniae; assay: Antibacterial activity against Klebsiella pneumoniae HK11750/08 after 48 hrs by broth microdilution method; format: functional; conditions: HK11750/08, 48 h
[24] = tested on: Klebsiella pneumoniae; assay: Antibacterial activity against extended spectrum beta-lactamase producing Klebsiella pneumoniae HK14368/08 after 24 hrs by broth microdilution method; format: functional; conditions: HK14368/08, 24 h
[25] = tested on: Klebsiella pneumoniae; assay: Antibacterial activity against extended spectrum beta-lactamase producing Klebsiella pneumoniae HK14368/08 after 48 hrs by broth microdilution method; format: functional; conditions: HK14368/08, 48 h
[26] = tested on: Pseudomonas aeruginosa; assay: Antibacterial activity against Pseudomonas aeruginosa ATCC 9027 after 24 hrs by broth microdilution method; format: functional; conditions: ATCC 9027, 24 h
[27] = tested on: Pseudomonas aeruginosa; assay: Antibacterial activity against Pseudomonas aeruginosa ATCC 9027 after 48 hrs by broth microdilution method; format: functional; conditions: ATCC 9027, 48 h
[28] = tested on: Candida albicans; assay: Antifungal activity against Candida albicans ATCC 44859 after 24 hrs by broth microdilution method; format: functional; conditions: ATCC 44859, 24 h
[29] = tested on: Candida albicans; assay: Antifungal activity against Candida albicans ATCC 44859 after 48 hrs by broth microdilution method; format: functional; conditions: ATCC 44859, 48 h
[30] = tested on: Candida tropicalis; assay: Antifungal activity against Candida tropicalis 156 after 24 hrs by broth microdilution method; format: functional; conditions: Candida tropicalis, 156, 24 h
[31] = tested on: Candida tropicalis; assay: Antifungal activity against Candida tropicalis 156 after 48 hrs by broth microdilution method; format: functional; conditions: Candida tropicalis, 156, 48 h
[32] = tested on: Pichia kudriavzevii; assay: Antifungal activity against Candida krusei E28 after 24 hrs by broth microdilution method; format: functional; conditions: E28, 24 h
[33] = tested on: Pichia kudriavzevii; assay: Antifungal activity against Candida krusei E28 after 48 hrs by broth microdilution method; format: functional; conditions: E28, 48 h
[34] = tested on: Nakaseomyces glabratus; assay: Antifungal activity against Candida glabrata 20/I after 24 hrs by broth microdilution method; format: functional
[35] = tested on: Nakaseomyces glabratus; assay: Antifungal activity against Candida glabrata 20/I after 48 hrs by broth microdilution method; format: functional
[36] = tested on: Trichosporon asahii; assay: Antifungal activity against Trichosporon asahii 1188 after 24 hrs by broth microdilution method; format: functional; conditions: Trichosporon asahii, 1188, 24 h
[37] = tested on: Trichosporon asahii; assay: Antifungal activity against Trichosporon asahii 1188 after 48 hrs by broth microdilution method; format: functional; conditions: Trichosporon asahii, 1188, 48 h
[38] = tested on: Aspergillus fumigatus; assay: Antifungal activity against Aspergillus fumigatus 231 after 24 hrs by broth microdilution method; format: functional; conditions: Aspergillus fumigatus, 231, 24 h
[39] = tested on: Aspergillus fumigatus; assay: Antifungal activity against Aspergillus fumigatus 231 after 48 hrs by broth microdilution method; format: functional; conditions: Aspergillus fumigatus, 231, 48 h
[40] = tested on: Lichtheimia corymbifera; assay: Antifungal activity against Absidia corymbifera 272 after 24 hrs by broth microdilution method; format: functional; conditions: Lichtheimia corymbifera, 272, 24 h
[41] = tested on: Lichtheimia corymbifera; assay: Antifungal activity against Absidia corymbifera 272 after 48 hrs by broth microdilution method; format: functional; conditions: Lichtheimia corymbifera, 272, 48 h
[42] = tested on: Trichophyton mentagrophytes; assay: Antifungal activity against Trichophyton mentagrophytes 445 after 72 hrs by broth microdilution method; format: functional; conditions: Trichophyton mentagrophytes, 445, 72 h
[43] = tested on: Trichophyton mentagrophytes; assay: Antifungal activity against Trichophyton mentagrophytes 445 after 120 hrs by broth microdilution method; format: functional; conditions: Trichophyton mentagrophytes, 445, 120 h

Structure (SMILES): O=[N+]([O-])c1cc(-c2nnn(Cc3ccc(F)cc3)n2)cc([N+](=O)[O-])c1
- MIC99 [1]: 0.25 µM (≈ 0.0861 µg/mL)
- MIC99 [2]: 0.5 µM (≈ 0.172 µg/mL)
- MIC99 [3]: 8 µM (≈ 2.75 µg/mL)
- MIC99 [4]: 8 µM (≈ 2.75 µg/mL)
- MIC99 [5]: 1 µM (≈ 0.344 µg/mL)
- MIC99 [6]: 2 µM (≈ 0.689 µg/mL)
- MIC99 [7]: 2 µM (≈ 0.689 µg/mL)
- MIC99 [8]: 1 µM (≈ 0.344 µg/mL)
- MIC99 [9]: 2 µM (≈ 0.689 µg/mL)
- MIC99 [10]: 4 µM (≈ 1.38 µg/mL)
- IC50 [11]: 35 µM
- MIC [12]: > 500 µM
- MIC [13]: > 500 µM
- MIC [14]: > 500 µM
- MIC [15]: > 500 µM
- MIC [16]: > 500 µM
- MIC [17]: > 500 µM
- MIC [18]: > 500 µM
- MIC [19]: > 500 µM
- MIC [20]: > 500 µM
- MIC [21]: > 500 µM
- MIC [22]: > 500 µM
- MIC [23]: > 500 µM
- MIC [24]: > 500 µM
- MIC [25]: > 500 µM
- MIC [26]: > 500 µM
- MIC [27]: > 500 µM
- MIC [28]: > 500 µM
- MIC [29]: > 500 µM
- MIC [30]: > 500 µM
- MIC [31]: > 500 µM
- MIC [32]: > 500 µM
- MIC [33]: > 500 µM
- MIC [34]: > 500 µM
- MIC [35]: > 500 µM
- MIC [36]: > 500 µM
- MIC [37]: > 500 µM
- MIC [38]: > 500 µM
- MIC [39]: > 500 µM
- MIC [40]: > 500 µM
- MIC [41]: > 500 µM
- MIC [42]: > 500 µM
- MIC [43]: > 500 µM

Structure (SMILES): COc1ccc(Cn2nnnc2-c2cc([N+](=O)[O-])cc([N+](=O)[O-])c2)cc1
- MIC99 [1]: 8 µM (≈ 2.85 µg/mL)
- MIC99 [2]: 8 µM (≈ 2.85 µg/mL)
- MIC99 [3]: 16 µM (≈ 5.7 µg/mL)
- MIC99 [4]: 32 µM (≈ 11.4 µg/mL)
- MIC99 [5]: 16 µM (≈ 5.7 µg/mL)
- MIC99 [6]: 32 µM (≈ 11.4 µg/mL)
- MIC99 [7]: 32 µM (≈ 11.4 µg/mL)
- MIC99 [8]: 8 µM (≈ 2.85 µg/mL)
- MIC99 [9]: 8 µM (≈ 2.85 µg/mL)
- MIC99 [10]: 16 µM (≈ 5.7 µg/mL)
- IC50 [11]: 21 µM
- MIC [12]: 62.5 µM (≈ 22.3 µg/mL)
- MIC [13]: 62.5 µM (≈ 22.3 µg/mL)
- MIC [14]: 31.2 µM (≈ 11.1 µg/mL)
- MIC [15]: 15.6 µM (≈ 5.57 µg/mL)
- MIC [16]: 62.5 µM (≈ 22.3 µg/mL)
- MIC [17]: 62.5 µM (≈ 22.3 µg/mL)
- MIC [18]: 62.5 µM (≈ 22.3 µg/mL)
- MIC [19]: 62.5 µM (≈ 22.3 µg/mL)
- MIC [20]: 125 µM (≈ 44.5 µg/mL)
- MIC [21]: 62.5 µM (≈ 22.3 µg/mL)
- MIC [22]: 250 µM (≈ 89.1 µg/mL)
- MIC [23]: 125 µM (≈ 44.5 µg/mL)
- MIC [24]: 250 µM (≈ 89.1 µg/mL)
- MIC [25]: 125 µM (≈ 44.5 µg/mL)
- MIC [26]: > 500 µM
- MIC [27]: > 500 µM
- MIC [28]: 250 µM (≈ 89.1 µg/mL)
- MIC [29]: 250 µM (≈ 89.1 µg/mL)
- MIC [30]: 500 µM (≈ 178 µg/mL)
- MIC [31]: 500 µM (≈ 178 µg/mL)
- MIC [32]: 250 µM (≈ 89.1 µg/mL)
- MIC [33]: 250 µM (≈ 89.1 µg/mL)
- MIC [34]: 500 µM (≈ 178 µg/mL)
- MIC [35]: 500 µM (≈ 178 µg/mL)
- MIC [36]: 500 µM (≈ 178 µg/mL)
- MIC [37]: 500 µM (≈ 178 µg/mL)
- MIC [38]: 500 µM (≈ 178 µg/mL)
- MIC [39]: 500 µM (≈ 178 µg/mL)
- MIC [40]: 500 µM (≈ 178 µg/mL)
- MIC [41]: 500 µM (≈ 178 µg/mL)
- MIC [42]: 500 µM (≈ 178 µg/mL)
- MIC [43]: 500 µM (≈ 178 µg/mL)
